From PubChem BioAssay (NCI) come the findings set out here.

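Each compound was tested at five concentrations against cells in 96-well plates for 48 hours. TGI is the concentration that stops growth completely.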

Holding throughout (experiment): DTP human tumour cell line panel, 48 h
The subject of test [1] is DU-145 prostate.
Test [2] relates to MDA-N.
In test [3] the test system is SF-268 CNS.
For test [4], the system named is BT-549 breast.
The subject of test [5] is CAKI-1 renal.
Test [6] deals with A549 NSCLC.
Test [7] relates to MDA-MB-231 breast.
Test [8] deals with EKVX NSCLC.
In test [9] the test system is T-47D breast.
Test [10] has as its system HS 578T breast.
Test [11] deals with COLO 205 colon.
Test [12] concerns RXF 393 renal.
Test [13] has as its system HCT-116 colon.
Test [14] has as its system HOP-92 NSCLC.
Test [15] concerns LOX IMVI melanoma.
Test [16] relates to MALME-3M melanoma.
In test [17] the test system is K-562 leukemia.

On to `O=C1OC(C2(O)OC(=O)c3ccccc32)c2ccccc21` (stereo not given), for which the concentration for total growth inhibition (TGI) in test [1], in test [2], in test [3], in test [4], in [5] and in test [6] was greater than 100 µM in each case. In addition, the total growth inhibition concentration (TGI) in test [7], in test [8], in test [9], in test [10], in test [11] and in test [12] was greater than 100 µM in each case. The TGI in test [13], in test [14] and in test [15] was greater than 100 µM each time.
With `Cc1ccc(OCC2OC(n3cnc4c(Cl)nc(Cl)nc43)CC2Oc2ccc(C)cc2)cc1` (stereo not given), the TGI (as a rule, the concentration at which net growth stops) in test [1] is 3.84 µM; in test [2], 3.84 µM; in [16], 5.13 µM; in test [3], 4.19 µM; in test [4], 4.3 µM; in test [5], 2.96 µM. Moreover, the total growth inhibition concentration (TGI) is 11.9 µM in test [6]; 3.99 µM in test [7]; 14.9 µM in test [8]; 4.53 µM in test [9]; 5.21 µM in test [10]; 3.73 µM in test [11]. Further, the concentration for total growth inhibition (TGI) in test [13] worked out at 3.65 µM; in test [14], 6.4 µM; in test [15], 3.61 µM.
Take `O=C(CCc1ccccc1)n1cccc1CO`: the TGI in [1], in [2], in test [16], in [3], in test [4] and in test [5] was greater than 100 µM throughout. In addition, the concentration for total growth inhibition (TGI) in test [6], in test [7], in test [8], in [9], in test [10] and in test [11] was greater than 100 µM throughout. Moreover, the TGI in test [12], in test [13], in test [17] and in test [15] was greater than 100 µM throughout.
Turning to `O=C1c2ccccc2C2C1C(c1ccccc1)C1(Cc3ccccc3C1=O)C2c1ccccc1` (stereo not given), the TGI in [1], in test [2], in test [16], in test [3], in [4] and in [6] was greater than 100 µM each time. The concentration for total growth inhibition (TGI) in [7], in test [8], in test [9], in [10], in test [11] and in test [12] was greater than 100 µM each time. The concentration for total growth inhibition (TGI) in test [13], in test [14], in test [17] and in test [15] was greater than 100 µM each time.
On to `ONC1=Nc2ccccc2C(=S)N2CSCC12` (stereo not given), for which the TGI in [1] is greater than 100 µM; in test [2], 45.1 µM; in test [16] it was greater than 100 µM; in test [3] it was greater than 100 µM; in test [4], greater than 100 µM; in test [5], greater than 100 µM. For the same molecule, the TGI in [6], in [7], in [8], in [9], in test [10] and in test [11] was greater than 100 µM in each case. Also, the total growth inhibition concentration (TGI) in test [12], in test [13], in [17] and in [15] was greater than 100 µM in each case.
With `CCOC(=O)c1c(C)n(C)c2c1cc(O)c1[nH]c3c(c12)CCCC3`, the total growth inhibition concentration (TGI) in test [1] is greater than 100 µM; in [2], 34.3 µM; in [16], 31.7 µM; in test [3], 21.8 µM; in test [4], greater than 100 µM; in test [5] it was greater than 100 µM. In addition, the concentration for total growth inhibition (TGI) in test [6] was 58.7 µM; in [7] it was 43.9 µM; in test [8] it was 45.1 µM; in test [9], 48.4 µM; in [10], 87.4 µM; in [11], 23.5 µM. Further, the total growth inhibition concentration (TGI) is 50.3 µM in test [13], 16.8 µM in [14], 40.3 µM in test [17] and 29.7 µM in test [15].
`Oc1c(Br)cc(/C=C/c2cccc(/C=C/c3cc(Br)c(O)c(Br)c3)n2)cc1Br`: the total growth inhibition concentration (TGI) is 14.1 µM in test [1]; 39.6 µM in test [2]; 32.9 µM in [3]; greater than 100 µM in test [4]; 45.6 µM in test [5]; 14.9 µM in [6]. Also, the total growth inhibition concentration (TGI) amounted to 49.4 µM in [7]; 34 µM in [8]; 31.4 µM in test [9]; 66.9 µM in test [10]; 32.1 µM in test [11]; 21 µM in test [13]. In addition, the TGI in test [14] was determined as 29.6 µM; in test [17], 23.7 µM; in test [15] it was 28.8 µM.
For the molecule `CC(=O)c1ccc2c(c1)CC1(C2)Cc2ccc3c(c2C1=O)CCC3` (stereo not given), the TGI in [1] is greater than 100 µM; in [2], 94.6 µM; in test [16], 57 µM; in [3], greater than 100 µM; in [4] it was greater than 100 µM; in test [5] it was greater than 100 µM. Besides, the concentration for total growth inhibition (TGI) in test [6] was greater than 100 µM; in test [7] it was greater than 100 µM; in [9], 94.5 µM; in test [10], greater than 100 µM; in test [11] it was 39.9 µM; in test [12], 97 µM. Moreover, the concentration for total growth inhibition (TGI) in test [13] was greater than 100 µM; in test [14] it was 41.2 µM; in test [17], greater than 100 µM; in test [15] it was greater than 100 µM.
